Reference: patent US10272036B2, “Composition for oral delivery of bioactive agents” (priority 2013, dated 2019)

Columns and labels:
[1] = tested on: BALB/C mice
Excerpt: Experimental Methods: Ten-twelve week old female BALB/C mice are used. Mice are fed ad libitum. Each experimental group is housed in a separate cage.
Three groups of 4 mice are each fed ad libitum as follows: 1) Inventive Warfarin composition, mixed in baits at 4% Warfarin activity, 2) Unencapsulated Warfarin, mixed in baits feed at 4% activity, 3) Bait containing a composition as in Example 3, containing no Warfarin or other bioactive. The feed intake and kill effect on the mice are monitored.

[2] = tested on: Rodents; conditions: cited from earlier work
[3] = Degradation of unprotected protein antigen (OVA) activity in simulated gastric juice; format: physicochemical; conditions: simulated gastric fluid, 0.08% pepsin, pH-2, 37° C.
Experimental: Western Blot: the compositions were lysed with RIPA buffer as described above, and a calculated amount equivalent to 12 μg of protein per sample was loaded on a 10% SDS-polyacrylamide gradient gel (SDS-PAGE, Bio-Rad, Hercules, Calif.). Proteins were transferred onto a PVDF membrane (Bio-Rad) and blocked for 1 h with 5% non-fat milk in PBS containing 0.5% Tween-20 (PBS-T). Blots were incubated with an appropriate primary antibody at 1:5000 dilutions for 1 h at room temperature. After washing with PBS-T (3×10 mL, 5 min. each), the membranes were incubated with an appropriate HRP-conjugated secondary antibody (EMD Millipore Corporation, Billerica, Mass., USA) at 1:5000 dilution for 1 h. After washing with PBS-T (3×10 mL, 5 min. each), chemiluminescent films were developed with an ECL substrate (Amsheram Biosciences).
To evaluate the loss of activity of a protein antigen following a typical gastric exposure, non-encapsulated OVA (10 mg) was incubated in 10 ml simulated gastric fluid containing 0.08% pepsin at pH-2 for 2 h at 37° C. on a shaker. Medium was withdrawn at 15 min, 30 min, 60 min and 120 min incubation times, and the amount of residual OVA was analyzed using Western Blot analysis as described above.

[4] = tested on: BALB/C mice; test: Oral administration of OVA composition to mice, immune response (ELISA IgG/IgA, ASC); format: in vivo; conditions: OVA solution subcutaneously (SC), 0 and 3 weeks, read at week 4, expected
Experimental: Ovalbumin is orally administered to mice to test the efficacy of the inventive compositions in inducing an immune response.
Ovalbumin composition: Ovalbumin (1 mg/g of ovalbumin, Sigma, St. Louis, Mo.,) is incorporated into the inventive composition as described in Example 5. Three groups of 4 mice each are inoculated as follows: 1) ovalbumin (OVA) in the composition, administered orally, 2) OVA solution, administered subcutaneously (SC), 3) antigen free composition administered orally. Mice are inoculated at 0 and 3 weeks. Each dose administers a total 100 mg of dry composition mixed with corn oil at a ratio of 1:2 w/w of dry composition/oil, coated onto feed pellets. At week 4 each mouse is euthanized and serum and spleen cells are harvested.
Immunological assays: Serum is assayed for IgG and IgA by ELISA. ELISA is performed using OVA absorbed to polystyrene plates. Samples are placed in wells in triplicate at a 1:25 dilution for serum. […] Optical density of each well is determined by placing the plate in a microtiter plate spectrophotometer and reading the plate at 490 nm. […]
The OVA specific IgG and IgA antibodies are quantified by determining the increase in optical density over time. […] No OVA specific IgG or IgA antibodies are expected to be detected in mice fed antigen free composition.

[5] = rodents ingesting baits containing Warfarin

Molecule | kill effect on the mice ([1]; after 8 h from feeding, expected) | feed intake, less than groups 1 and 3 ([1]; baits at 4% Warfarin activity, ad libitum) | time to recovery ([2]; rodents after a sublethal amount of Warfarin) | time to become unconscious [2, 5] | time to obvious symptoms of poisoning [2, 5] | Remaining activity (%) ([3]; 15 min, relative to pre-exposure activity) | Remaining activity (%) ([3]; 30 min) | Remaining activity (%) ([3]; 60 min) | Remaining activity (%) ([3]; 120 min) | OVA specific serum IgA, IgG and ASC secreting cells [4]
CC(=O)CC(c1ccccc1)c1c(O)c2ccccc2oc1=O (stereo not shown) [Warfarin] | all group 2 mice remain alive | over 25% | ≤ 8 h | 1 to 2 h | 15 to 30 min |  |  |  |  | 
ovalbumin (protein, UniProt P01012 2-386, looked up, Ovalbumin, model vaccine / protein antigen, unprotected or as solution) Ovalbumin: GSIGAASMEFCFDVFKELKVHHANENIFYCPIAIMSALAMVYLGAKDSTRTQINKVVRFDKLPGFGDSIEAQCGTSVNVHSSLRDILNQITKPNDVYSFSLASRLYAEERYPILPEYLQCVKELYRGGLEPINFQTAADQARELINSWVESQTNGIIRNVLQPSSVDSQTAMVLVNAIVFKGLWEKAFKDEDTQAMPFRVTEQESKPVQMMYQIGLFRVASMASEKMKILELPFASGTMSMLVLLPDEVSGLEQLESIINFEKLTEWTSSNVMEERKIKVYLPRMKMEEKYNLTSVLMAMGITDVFSSSANLSGISSAESLKISQAVHAAHAEINEAGREVVGSAEAGVDAASVSEEFRADHPFLFCIKHIATNAVLFFGRCVSP |  |  |  |  |  | 61% | 55% | 38% | 2% | equally increased
